pIC50: −log10 of the molar value. The source made the active and inactive calls. No cut-off for these calls is given here.
How the values were obtained:
Prolyl hydroxylase EGLN3 = Prolyl hydroxylase EGLN3 (Homo sapiens, UniProt Q9H6Z9); assay: Inhibition of recombinant human PHD3 expressed in Escherichia coli using HIF19 peptide as substrate by fluorescence emission spectroscopy
NCI-H446 [1] = assay: Effect on HIF1alpha mRNA expression in human NCI-H446 cells after 12 hrs by RT-PCR analysis; type: functional, cell-based
NCI-H446 [2] = assay: Cytotoxicity against human NCI-H446 cells assessed as proliferation rate up to 200 uM after 24 hrs by MTT assay; type: cell-based; details: nci-h446, 24 h
[3] = Cytotoxicity against human NCI-H446 cells assessed as cell survival up to 200 uM after 24 hrs by MTT assay; type: cell-based; details: read-out: Survival

Chain of Prolyl hydroxylase EGLN3 (Q9H6Z9 whole entry): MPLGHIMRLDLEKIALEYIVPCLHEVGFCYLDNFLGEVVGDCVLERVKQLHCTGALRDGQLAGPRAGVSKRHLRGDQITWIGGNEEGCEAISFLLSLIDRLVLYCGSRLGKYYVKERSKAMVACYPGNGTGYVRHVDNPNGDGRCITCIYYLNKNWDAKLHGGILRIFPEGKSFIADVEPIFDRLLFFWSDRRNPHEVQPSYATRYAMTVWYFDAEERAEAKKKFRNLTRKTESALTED

SMILES | pIC50 (Prolyl hydroxylase EGLN3) | Activity (NCI-H446 [1]) | Activity (NCI-H446 [2]) | viability at 24 h [3]
c1ccc2[nH]cnc2c1 [BENZIMIDAZOLE] | < 4.00 |  |  | 
O=C(O)CCn1cnc2ccccc21 |  | inactive | > 80% | 
c1ccc2[nH]c(CCn3nnc4ccccc43)nc2c1 |  | inactive |  | > 90%
c1ccc2[nH]c(CCn3cncn3)nc2c1 |  | inactive | > 80% | 
O=C(O)CCn1ccnc1 |  | inactive |  | > 90%
c1ccc2[nH]nnc2c1 [BENZOTRIAZOLE] | < 4.00 |  |  | 
O=C(O)CCn1cncn1 |  | inactive | > 80% | 
O=C(O)CCn1nnc2ccccc21 |  | inactive |  | > 90%

Reference: ChEMBL document CHEMBL3132802, “Azole derivatives as novel non-iron-chelating inhibitors of prolyl hydroxylase 3 for HIF-1 activation” (Medchemcomm, 2013)
